# Measurements from US10668027B1, “Method of treating Acanthamoeba infection using allopurinol” (University of South Florida, priority 2014, dated 2020).
# Where two headings read alike, the source gives them in different places.
# How the values were obtained:
# [1] = tested on: Naegleria fowleri strain Nf69 (ATCC 30215); assay: LDH cytotoxicity assay of N. fowleri amoebae co-cultured with CHO cells; details: ATCC30215, CHO, 13 h, read-out: IC50, protection from N. fowleri cytotoxicity
# Description: Naegleria fowleri strain Nf69 (ATCC 30215) was cultivated at about 33° C. in modified Nelson's medium (about 1 mM Na2HPO4, about 1 mM KH2PO4, about 2.05 mM NaCl, about 16.2 μM MgSO4, about 27.2 μM CaCl2), about 0.17 g/L DIFCO Liver infusion broth, about 9.4 mM glucose) supplemented with about 10% heat-inactivated fetal bovine serum. For cytotoxicity assays, Chinese hamster ovary (CHO) cells were grown at about 37° C. in DMEM medium supplemented with about 10% fetal bovine serum until cultures reached about 70-80% confluency. Subsequently cultures were infected with N. fowleri cells at a ratio of 1 N. fowleri amoeba per 5-10 CHO cells and co-cultivated overnight for about 13 hours at about 37° C. The cytotoxicity effect of N. fowleri amoebae on CHO cells was measured by an LDH-based cytotoxicity assay that quantifies the release of lactate dehydrogenase (LDH) from dead cells at 490 nm wavelength absorbance for calculation of amoeba-induced cytotoxicity to the mammalian host cells.
# Cytotoxicity of Naegleria fowleri amoebae was measured with CHO cells co-cultured with N. fowleri for about 13 hours at about 37° C. using the LDH cytotoxicity assay (infection ratio of 1 amoeba cell per 5-10 CHO cells) as described above.
# [2] = molecular target: T1, N. fowleri Nfa-1 hemerythrin (Naegleria fowleri, UniProt Q9NH76); assay: biochemical
# T1 construct: made in house; host or cells: E. coli
# From the text: (§1) The N. fowleri Nfa-1 gene (360 bp, GenBank Accession No. AF230370) was amplified by PCR from genomic N. fowleri DNA using PCR primers that included the Nde1 and Sap1 restriction enzyme sites for subsequent cloning into the Nde1 and Sap1 sites of the bacterial expression vector pTwin1 (forward primer with Nde1 site underlined; ATG start codon is indicated in bold: SEQ ID NO: 1 5′-[…]-3′, reverse primer with Sap1 site underlined: SEQ ID NO: 2 5′-[…]-3′), which contained a thiol-inducible intein protease fused to a chitin-binding domain. Recombinant Nfa-1 protein was produced in E. coli and purified by chitin-agarose chromatography followed by cleavage and elution of the purified Nfa-1 protein by 40 mM dithiothreitol (DTT) and subsequent size-exclusion chromatography purification.
# (§2) Enzymatic oxidase activity, kinetics and pharmacological drug inhibition assays of recombinant N. fowleri Nfa-1 hemerythrin were determined in vitro using NADH or NADPH as the substrate and electron donor and ferricyanide as electron acceptor. Various drugs and inhibitors specific for xanthine oxidase-like enzymes, NAD(P)H oxidases, or NADH peroxidase were included in the pharmacological inhibition assays.
# [3] = tested on: Acanthamoeba castellani (ATCC strain 50370); assay: microbe, parasite or virus in culture; details: Acanthamoeba castellanii, ATCC50370, CHO, 19 h, read-out: IC50, protection against A. castellani cytotoxicity
# [4] = molecular target: T1, N. fowleri Nfa-1 hemerythrin; assay: Initial-rate enzyme kinetics of Nfa-1 hemerythrin using NADH or NADPH as substrates; assay type: biochemical; details: substrate 10-200 μM, ferricyanide 200 μM, 40 sec at 23° C., Michaelis-Menten analysis; for Km: read-out: apparent Km
# From the text: as §1, §2
# Enzyme kinetics were determined using NADH or NADPH at 10-200 μM concentration as electron donor and ferricyanide (200 μM) as electron acceptor for initial-rate enzyme kinetics of 40 sec at 23° C.
# [5] = recombinant N. fowleri Nfa-1 oxidase in vitro, read-out: Ki, inhibition of Nfa-1 enzyme activity
# T1 sequence (Q9NH76 whole entry): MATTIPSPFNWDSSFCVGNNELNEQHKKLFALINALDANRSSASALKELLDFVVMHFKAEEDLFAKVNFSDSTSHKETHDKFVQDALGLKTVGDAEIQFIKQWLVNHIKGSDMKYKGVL
smiles,measurement,setting,value
O=c1[nH]cnc2nc[nH]c12 [hypoxanthine],IC50,[1],497 µM
same,Ki,[2],1000 µM
COc1cc(C(C)=O)ccc1O [Apocynin],IC50,[1],15 µM
same,IC50,[3],174 µM
same,Ki,[2]; [5],17 µM
Oc1ncnc2[nH]ncc12 [Allopurinol],IC50,[1],48 µM
same,IC50,[3],620 µM
same,Ki,[2]; [5],134 µM
NC(=O)C1=CN([C@@H]2O[C@H](COP(=O)(O)OP(=O)(O)OC[C@H]3O[C@@H](n4cnc5c(N)ncnc54)[C@H](OP(=O)(O)O)[C@@H]3O)[C@@H](O)[C@H]2O)C=CC1 [NADPH],apparent kat,[4],3.3 s⁻¹
same,Km,[4],22.3 µM
NC(=O)C1=CN([C@@H]2O[C@H](COP(=O)(O)OP(=O)(O)OC[C@H]3O[C@@H](n4cnc5c(N)ncnc54)[C@H](O)[C@@H]3O)[C@@H](O)[C@H]2O)C=CC1 [NADH],apparent kat,[4],4.4 s⁻¹
same,Km,[4],64.5 µM
"OO [Formula H2O2, H2O2]",stimulation of Nfa-1 enzyme activity,"[2]; NADH peroxidase activator, FIG. 9",9.7%
O=[N+]([O-])[O-].[Ag+] [AgNO3],Ki,[2]; [5],345 µM
"O=C(O)c1cc[c]([Hg][OH])cc1 [pHMB, para-hydroxymercuribenzoate]",Ki,[2],78 µM
"c1ccc2c(c1)[I+]c1ccccc1-2 [DPI, diphenyleneiodonium chloride]",IC50,[1],49 µM
same,Ki,[2],19 µM
